Assay results from US5214053A, “Thiourea derivatives and antimicrobial agent and antiulcer agent containing the same” (Terumo Kabushiki Kaisha, priority 1991, dated 1993).
Values after ≈ are worked out from the molar mass of the structure shown. Where two headings read alike, the source gives them in different places.

Assays:
[1] = tested on: ethanol peptic ulcer; experiment: Inhibitory action against ethanol peptic ulcer; format: in vivo, SD male rats; settings: Rattus norvegicus, read-out: Inhibitory action against ethanol peptic ulcer, percent inhibition of peptic ulcer formation
Method: Inhibitory Action Against Ethanol Peptic Ulcer
SD male rats (weighing 200-300 g) were fasted for 24 hours before oral administration of a thiourea derivative of the invention at a dose of 32 mg/kg bodyweight. One hour later, ethanol was orally given in a volume of 0.5 ml/100 g bodyweight. One hour after administering ethanol, the rat was sacrificed with ether, and the stomach was excised and treated with formalin. Area (mm^2) of the lesions developed in the glandular stomach area was then measured. Results were expressed in sum of the lesions per animal which was referred to as peptic ulcer index.
Percent inhibition of the peptic ulcer formation (%) as shown in the table was calculated according to the same equation as mentioned above.

[2] = tested on: peptic ulcer induced by water immersion restrain stress; experiment: Inhibitory action against peptic ulcer induced by water immersion restrain stress; format: in vivo, SD male rats; settings: Rattus norvegicus, read-out: Inhibitory action against stress peptic ulcer, percent inhibition of peptic ulcer formation
Method: Inhibitory Action Against Peptic Ulcer Induced By Water Immersion Restrain Stress
SD male rats (weighing 200-300 g) were fasted for 24 hours before oral administration of a thiourea derivative of the invention at a dose of 32 mg/kg bodyweight. One hour later, the animal was put in a stress cage and loaded with water immersion restraint stress in a water bath at 23° C.
Seven hours after loading with the stress, the rat was sacrificed with ether, and the stomach was excised and treated with formalin. Area (mm^2) of the lesions developed in the glandular stomach area was then measured. Results were expressed in sum of the lesions per animal which was referred to as peptic ulcer index.
Percent inhibition of the peptic ulcer formation (%) as shown in the table was calculated according to the following equation: [formula]

[3] = tested on: Helicobacter pylori; experiment: Antimicrobial activity against Helicobacter pylori (MIC); format: cell-based, Helicobacter pylori strain NCTC 11916
Method: Antimicrobial Activity Against Helicobacter Pylori
Antimicorbial activity of the thiourea derivatives according to the invention against Helicobacter pylori (or Campylobacter pylori) was evaluated by employing strain NCTC 11916 as a Helicobacter test organism and determining MIC (minimum inhibitory concentration) of the thiourea derivative against Helicobacter pylori.
The Helicobacter pylori was pre-incubated in a plate medium for 3-5 days. […] These antibiotics were contained for inhibition of the growth of microorganisms with than Helicobacter pylori.
The Helicobacter pylori pre-incubated under slightly aerobic conditions (an O2 concentration of about 5%) at 37° C. for 3-5 days was suspended in a physiological saline solution in a concentration of approximately 10^8 organisms/ml. Approximately 10-20 μl of the suspension was inoculated on a medium for MIC measurement in cross streaks. […] The DMSO solution was formed by the twofold dilution method using sterilized distilled water. As in the pre-incubation, the Helicobacter pylori was cultured under slightly aerobic conditions at 37° C. for 3-5 days. After completion of the culture, growth of the microorganisms on the streaks was visually determined. […] The MIC of cemetidine, an antagonist to histamine was also measured for comparison.

[4] = SD male rats, oral, 32 mg/kg, 1 hour before ethanol (0.5 ml/100 g), lesions measured 1 hour after ethanol
[5] = SD male rats, oral, 32 mg/kg, 1 hour before stress, lesions measured 7 hours after loading with the stress
[6] = NCTC11916, strain NCTC 11916, Mueller-Hinton agar with horse hemolysis solution, 37° C., 3-5 days, slightly aerobic (O2 about 5%), read-out: Antimicrobial activity against Helicobacter pylori, MIC (minimum inhibitory concentration)

Structure (SMILES) | inhibition in vivo at 32 mg/kg ([1]; po, 1 h) [%] | inhibition in vivo at 32 mg/kg ([2]; po, 7 h) [%] | MIC ([3]; NCTC11916, read-out: Antimicrobial activity against Helicobacter pylori, MIC (minimum inhibitory concentration)) [µg/mL] | inhibition in vivo at 32 mg/kg [1, 4] [%] | inhibition in vivo at 32 mg/kg [2, 5] [%] | MIC [3, 6] [µg/mL]
CNC(=NC#N)NCCSCc1nc[nH]c1C [Cemetidine, reference compound] | 16 | 64 | ≥ 400 |  |  | 
O=C(CCCNC(=S)Nc1ccc2c(c1)OCO2)NCCCOc1cccc(CN2CCCCC2)c1 [Example 1, 1-[3-[N-[3-[3(piperidinomethyl)phenoxy]propyl]carbamoyl]propyl]-3-[(3,4methylenedioxy)phenyl] thiourea] |  |  |  | 67 | 80 | 6.25 (≈ 12.2 µM)
O=C(CCCNC(=S)Nc1ccc2c(c1)OCCO2)NCCCOc1cccc(CN2CCCCC2)c1 [Example 2, 1-[3-[N-[3-[3-(piperidinomethy)phenoxy]propyl]carbamoyl]propyl]-3-[(3,4-ethylenedioxy)phenyl]thiourea] |  |  |  | 66 | 76 | 6.25 (≈ 11.9 µM)
O=C(CCCNC(=S)Nc1ccc2c(c1)OCO2)NCCCOc1cccc(CN2CCCC2)c1 [Example 3, 1-[3-[N-[3-[3-(pyrrolidinomethyl)phenoxy]propyl]carbamoyl]propyl]-3-[(3,4-methylenedioxy)phenyl]-thiourea] |  |  |  | 61 | 68 | 6.25 (≈ 12.5 µM)
CC1CCCN(Cc2cccc(OCCCNC(=O)CCCNC(=S)Nc3ccc4c(c3)OCO4)c2)C1 (stereo not drawn) [Example 4, 1-[3-[N-[3-[3((3-methylpiperidino)methyl)phenoxy]propyl]carbamoyl]propyl]-3-[(3,4-methylenedioxy)phenyl]thiourea] |  |  |  | 71 | 77 | 6.25 (≈ 11.9 µM)
CCN(CC)Cc1cccc(OCCCNC(=O)CCCNC(=S)Nc2ccc3c(c2)OCO3)c1 [Example 5, 1-[3-[N-[3-[3-(diethylaminomethyl)phenoxy]propyl]carbamoyl]propyl]-3-[(3,4-methylenedioxy)phenyl]thiourea] |  |  |  | 52 | 62 | 12.5 (≈ 25 µM)
O=C(CCCCCNC(=S)Nc1ccc2c(c1)OCO2)NCCCOc1cccc(CN2CCCCC2)c1 [Example 6] |  |  |  | 70 | 65 | 6.25 (≈ 11.6 µM)
O=C(CCCNC(=S)Nc1ccc2c(c1)OCO2)NCCCOc1cc(CN2CCCCC2)ccn1 [Example 7] |  |  |  | 63 | 78 | 6.25 (≈ 12.2 µM)
O=C(CCCNC(=S)NCc1ccc2c(c1)OCO2)NCCCOc1cccc(CN2CCCCC2)c1 [Example 8] |  |  |  | 78 | 82 | 6.25 (≈ 11.9 µM)
